Biological target: T1, FLK-1 receptor (Mus musculus, UniProt P35918)
T1 construct: expressed in transfected cells; host or cells: NIH3T3 C7#3
Experiment: FLK-1 ELISA (kinase activity of the FLK-1 receptor in FLK-1/NIH3T3 cells, VEGF stimulated)
Assay type: cell-based
Parameters: concentration or dose not given beside the values
Method in brief: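 An ELISA using affinity-purified rabbit anti-FLK-1 antiserum on anti-rabbit IgG-coated plates measured VEGF-stimulated FLK-1 kinase activity. NIH3T3 C7#3 cells carrying FLK-1 were serum-starved (0.1% FBS) overnight, then exposed to compound (final 1:200 dilution, 0.5% DMSO) for two hours at 37 °C.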

T1 sequence (P35918 20-1345): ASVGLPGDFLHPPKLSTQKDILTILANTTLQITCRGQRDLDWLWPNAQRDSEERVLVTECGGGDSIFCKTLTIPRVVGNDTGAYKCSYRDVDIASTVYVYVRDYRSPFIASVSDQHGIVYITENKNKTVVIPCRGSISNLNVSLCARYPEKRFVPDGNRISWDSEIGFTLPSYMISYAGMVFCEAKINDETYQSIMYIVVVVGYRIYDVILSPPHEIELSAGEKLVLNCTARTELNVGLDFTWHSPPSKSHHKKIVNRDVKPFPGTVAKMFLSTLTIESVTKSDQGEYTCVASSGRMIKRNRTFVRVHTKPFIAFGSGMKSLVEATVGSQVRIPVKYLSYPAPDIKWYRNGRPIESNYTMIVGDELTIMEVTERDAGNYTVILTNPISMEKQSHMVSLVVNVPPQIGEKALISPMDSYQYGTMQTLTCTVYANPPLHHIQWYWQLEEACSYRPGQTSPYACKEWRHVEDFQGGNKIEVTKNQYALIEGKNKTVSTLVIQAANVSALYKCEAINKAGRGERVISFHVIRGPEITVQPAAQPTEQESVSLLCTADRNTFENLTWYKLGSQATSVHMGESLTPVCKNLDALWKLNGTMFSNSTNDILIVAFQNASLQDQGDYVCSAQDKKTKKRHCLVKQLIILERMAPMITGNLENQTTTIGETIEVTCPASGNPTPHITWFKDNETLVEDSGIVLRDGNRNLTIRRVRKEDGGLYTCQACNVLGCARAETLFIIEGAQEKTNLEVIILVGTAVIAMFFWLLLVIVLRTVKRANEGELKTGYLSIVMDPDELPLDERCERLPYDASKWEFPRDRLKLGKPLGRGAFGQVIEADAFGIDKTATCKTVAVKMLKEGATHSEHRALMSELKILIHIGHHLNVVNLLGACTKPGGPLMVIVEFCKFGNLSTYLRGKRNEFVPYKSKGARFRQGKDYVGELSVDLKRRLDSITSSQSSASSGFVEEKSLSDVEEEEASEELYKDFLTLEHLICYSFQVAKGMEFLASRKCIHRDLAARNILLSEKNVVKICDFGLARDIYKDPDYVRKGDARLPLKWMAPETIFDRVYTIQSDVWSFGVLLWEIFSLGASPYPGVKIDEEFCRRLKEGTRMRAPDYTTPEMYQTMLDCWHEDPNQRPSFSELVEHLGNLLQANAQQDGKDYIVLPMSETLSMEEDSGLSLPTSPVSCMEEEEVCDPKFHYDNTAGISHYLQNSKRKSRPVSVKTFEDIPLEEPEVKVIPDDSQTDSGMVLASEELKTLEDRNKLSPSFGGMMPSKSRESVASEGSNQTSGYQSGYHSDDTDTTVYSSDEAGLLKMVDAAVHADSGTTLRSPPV

SMILES	Fik Kinase %Inhibition
O=C1Nc2c(Br)cc(Br)cc2C1=Cc1ccncc1 [10729/A09]	0.4%
CNS(=O)(=O)c1ccc2c(c1)C(=Cc1sccc1C)C(=O)N2 [10729/D05]	2.2%
O=C1Nc2ccc(S(=O)(=O)Nc3ccc(C(F)(F)F)cc3)cc2C1=Cc1cc(C(F)(F)F)ccc1F [10728/E08]	15.2%
CNS(=O)(=O)c1ccc2c(c1)C(=Cc1cc(OC)c3c(c1)OCO3)C(=O)N2 [10728/D11]	15.9%
CSc1ccc(C=C2C(=O)Nc3ccc(Br)c(C)c32)cc1 [10729/C04]	-2.5%
O=C1Nc2ccc(I)cc2C1=Cc1ccccn1 [10729/B07]	-13.4%
COc1ccc2ccccc2c1C=C1C(=O)Nc2ccc(S(=O)(=O)Nc3ccc(C(F)(F)F)cc3)cc21 [10729/E02]	26.6%
O=C1Nc2ccc(CCCl)cc2C1=Cc1ccc2c(c1)Cc1ccccc1-2 [10728/G06]	13.5%
COc1cc(Br)c(O)c(C=C2C(=O)Nc3ccc(I)cc32)c1 [10718/B03]	1.7%
COc1cc(C=C2C(=O)Nc3ccc(S(=O)(=O)Nc4ccc(C(F)(F)F)cc4)cc32)cc(OC)c1 [10728/E04]	5.5%
O=C1Nc2c(Br)cc(Br)cc2C1=Cc1ccco1 [10718/A10]	23.4%
COc1ccc(C=C2C(=O)Nc3ccc(I)cc32)c2ccccc12 [10729/B03]	11.2%
COc1ccc(C=C2C(=O)Nc3c(Br)cc(Br)cc32)c2ccccc12 [10729/A03]	4.7%
O=C1Nc2ccc(S(=O)(=O)Nc3ccc(C(F)(F)F)cc3)cc2C1=Cc1ccccn1 [10729/E07]	4.1%
O=C(O)COc1ccccc1C=C1C(=O)Nc2ccc(CCCl)cc21 [10728/G10]	10.4%
Cc1c(Br)ccc2c1C(=Cc1cccc(Oc3ccccc3)c1)C(=O)N2 [10729/C06]	3.8%
CNS(=O)(=O)c1ccc2c(c1)C(=Cc1c(F)cccc1C(F)(F)F)C(=O)N2 [10728/D09]	10.5%
COc1ccc(OC)c(C=C2C(=O)Nc3ccc(S(=O)(=O)NN4CCOCC4)cc32)c1 [10728/F02]	2.9%
O=C1Nc2ccc(S(=O)(=O)Nc3ccc(C(F)(F)F)cc3)cc2C1=Cc1cccc(C(F)(F)F)c1F [10728/E07]	9.6%
O=C1Nc2ccc(I)cc2C1=Cc1ccc(N2CCCC2)cc1 [10729/B10]	-0.7%

SMILES	Fik Kinase %Inhibition
COc1ccc2ccccc2c1C=C1C(=O)Nc2ccc(Br)c(C)c21 [10729/C02]	6.0%
COc1ccc(OC)c(C=C2C(=O)Nc3ccc(CCCl)cc32)c1 [10728/G02]	2.3%
Cc1c(Br)ccc2c1C(=Cc1cccnc1)C(=O)N2 [10729/C08]	-20.3%
Cc1c(Br)ccc2c1C(=Cc1ccncc1)C(=O)N2 [10729/C09]	-26.4%
Cc1ccsc1C=C1C(=O)Nc2ccc(I)cc21 [10729/B05]	-5.2%
O=C1Nc2ccc(CCCl)cc2C1=Cc1c(F)cccc1C(F)(F)F [10728/G09]	6.8%
COc1ccc(C=C2C(=O)Nc3ccc(Br)c(C)c32)c2ccccc12 [10729/C03]	11.0%
CNS(=O)(=O)c1ccc2c(c1)C(=Cc1cccc(C(F)(F)F)c1F)C(=O)N2 [10728/D07]	8.1%
Cc1ccsc1C=C1C(=O)Nc2ccc(Br)c(C)c21 [10729/C05]	5.8%
O=C1Nc2ccc(I)cc2C1=Cc1ccc2ccccc2c1O [10718/B04]	11.8%
Cc1c(Br)ccc2c1C(=CC1C=CCCC1)C(=O)N2 (stereo not shown) [10729/C11]	10.4%
CCOC(=O)c1cc(C=C2C(=O)Nc3ccc(I)cc32)oc1C [10718/B06]	16.5%
O=C1Nc2ccc(S(=O)(=O)Nc3ccc(C(F)(F)F)cc3)cc2C1=Cc1cccc(Oc2ccccc2)c1 [10729/E06]	12.1%
O=C1Nc2ccc(I)cc2C1=Cc1cccnc1 [10729/B08]	-14.7%
Cc1c(Br)ccc2c1C(=Cc1ccccn1)C(=O)N2 [10729/C07]	-22.4%
COc1cccc(OC)c1C=C1C(=O)Nc2ccc(S(=O)(=O)Nc3ccc(C(F)(F)F)cc3)cc21 [10728/E03]	13.2%
CNS(=O)(=O)c1ccc2c(c1)C(=Cc1ccc(OC)c3ccccc13)C(=O)N2 [10729/D03]	15.3%
COc1cc(C=C2C(=O)Nc3ccc(S(=O)(=O)Nc4ccc(C(F)(F)F)cc4)cc32)cc2c1OCO2 [10728/E11]	16.3%
COc1cccc(OC)c1C=C1C(=O)Nc2ccc(CCCl)cc21 [10728/G03]	14.3%
O=C(O)COc1ccccc1C=C1C(=O)Nc2ccc(S(=O)(=O)Nc3ccc(C(F)(F)F)cc3)cc21 [10728/E10]	24.7%

Reference: patent publication EP1247803A2, “Indolinone compounds suitable for modulation of protein kinases” (Sugen, Inc., priority 1996, dated 1998)
